The source of these data is patent US20240360126A1, “PYRAZOLO[3,4-B]PYRIDINE COMPOUNDS FOR THE TREATMENT OF AUTOIMMUNE DISEASE” (Hoffmann-La Roche Inc., priority 2021, published 2024).

Usually IC20 stands for the concentration at which the effect reaches the 20% level. Read a low IC20 as greater potency.

One data set concerns the target T1, hERG K+ channel (Homo sapiens, UniProt Q12809).
T1 construct: expressed in transfected cells; host or cells: CHO (Chinese hamster ovary)
The experiment in a line: hERG channel inhibition assay (patch-clamp, CHO-hERG cells). It is filed as cell-based. The note with it: for IC50 / IC20: CHO-hERG cells, whole-cell patch-clamp; for IC20: human, CHO cells stably expressing hERG; for hERG IC20/TLR7 IC50 / hERG IC20/TLR8 IC50 / hERG IC20/TLR9 IC50: safety ratio. As for the experimental part: The hERG K^+ channels were cloned in humans and stably expressed in a CHO (Chinese hamster ovary) cell line. CHOhERG cells were used for patch-clamp (voltage-clamp, whole-cell) experiments. Cells were stimulated by a voltage pattern to activate hERG channels and conduct IKhERG Currents (rapid delayed outward rectifier potassium current of the hERG channel). After the cells were stabilized for a few minutes, the amplitude and kinetics of IKhERG were recorded at a stimulation frequency of 0.1 Hz (6 bpm). Thereafter, the test compound was added to the preparation at increasing concentrations. For each concentration, an attempt was made to reach a steady-state effect, usually, this was achieved within 3-10 min at which time the next highest concentration was applied. The amplitude and kinetics of IKhERG are recorded in each concentration of the drug which were compared to the control values (taken as 100%). (references: Redfe W S, Carlsson L, Davis A S, Lynch W G, MacKenzie I, Palethorpe S, Siegl P K, Strang I, Sullivan A T, Wallis R, Camm A J, Hammond T G. 2003; Relationships between preclinical cardiac electrophysiology, clinical QT interval prolongation and torsade de pointes for a broad range of drugs: evidence for a provisional safety margin in drug development. Cardiovasc. Res. 58:32-45, Sanguinetti M C, Tristani-Firouzi M. 2006; hERG potassium channels and cardiac arrhythmia. Nature 440:463-469, Webster R, Leishman D, Walker D. 2002; Towards a drug concentration effect relationship for QT prolongation and torsades de pointes. Curr. Opin. Drug Discov. Devel. 5:116-26).

In another data set the target is T2, TLR9 (Homo sapiens, UniProt Q9NR96).
T2 sequence (Q9NR96 26-1032): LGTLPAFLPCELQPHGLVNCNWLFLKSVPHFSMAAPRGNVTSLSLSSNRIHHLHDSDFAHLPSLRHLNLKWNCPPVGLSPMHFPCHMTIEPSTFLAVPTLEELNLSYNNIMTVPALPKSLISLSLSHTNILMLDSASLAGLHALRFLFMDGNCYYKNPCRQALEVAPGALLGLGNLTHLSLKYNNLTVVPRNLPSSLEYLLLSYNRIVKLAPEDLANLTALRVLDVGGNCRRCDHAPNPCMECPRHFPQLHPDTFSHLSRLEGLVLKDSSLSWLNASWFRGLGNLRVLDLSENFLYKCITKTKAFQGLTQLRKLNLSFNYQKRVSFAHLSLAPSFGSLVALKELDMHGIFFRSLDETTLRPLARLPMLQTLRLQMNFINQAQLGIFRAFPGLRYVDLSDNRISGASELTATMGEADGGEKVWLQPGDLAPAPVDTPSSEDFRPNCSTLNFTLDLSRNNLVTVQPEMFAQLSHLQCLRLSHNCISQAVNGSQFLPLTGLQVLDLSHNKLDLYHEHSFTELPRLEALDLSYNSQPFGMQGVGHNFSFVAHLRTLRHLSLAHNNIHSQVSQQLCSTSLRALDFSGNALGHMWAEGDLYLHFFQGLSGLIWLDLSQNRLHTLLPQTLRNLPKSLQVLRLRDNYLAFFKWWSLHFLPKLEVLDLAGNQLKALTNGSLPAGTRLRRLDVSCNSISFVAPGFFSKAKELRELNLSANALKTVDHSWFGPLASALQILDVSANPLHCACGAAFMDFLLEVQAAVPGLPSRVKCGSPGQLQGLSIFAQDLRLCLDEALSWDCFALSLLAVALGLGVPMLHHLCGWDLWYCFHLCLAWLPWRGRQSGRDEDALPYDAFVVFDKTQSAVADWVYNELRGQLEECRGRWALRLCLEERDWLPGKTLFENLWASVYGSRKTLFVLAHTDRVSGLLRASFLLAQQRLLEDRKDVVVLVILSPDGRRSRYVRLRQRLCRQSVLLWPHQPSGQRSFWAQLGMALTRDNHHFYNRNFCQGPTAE
In words: Human PBMC cell-based assay. Details: These cells express TLR7, TLR8, or TLR9, and therefore are natural responders to respective ligand stimulation; endogenous in cells; host or cells: human PBMC from healthy donor whole blood. Particulars: CpG ODN 2216 at 1 μM, read-out: hPBMC/TLR9 IC50. The text has this:
Unlike the HEK reporter cell lines, human peripheral blood mononuclear cell (PBMC) represents primary human immune cells in blood mainly consisting of lymphocytes, monocytes, and dendritic cells. These cells express TLR7, TLR8, or TLR9, and therefore are natural responders to respective ligand stimulation. Upon activation of these TLRs, PBMCs secrete similar cytokines and chemokines in vitro and in vivo, and therefore the in vitro potency of a TLR7/8/9 antagonist in human PBMC is readily translatable to its pharmacodynamics response in vivo.
Human peripheral blood mononuclear cells (PBMC) were isolated from freshly-drawn lithium-heparinized (Lithium Heparin Plus blood Collection tube, BD Vacutainer®) healthy donor whole blood by density gradient (Ficoll-Paque™ PLUS, GE Healthcare life Sciences). Briefly, […] was diluted with 25 mL PBS (without Ca^2+, Mg^2+) in a 50 mL conical tube with porous barrier (Leucosep tube, Greiner bio-one), where 15.5 mL Ficoll-Paque was under laid after spinning. Tubes were centrifuged for 20 minutes at 800×g (1946 rpm) with the brake in the off position, and PBMC were collected from the buffy coat. Cells were then washed twice in PBS, and red blood cells were lysed by suspension in 2 mL (Red Blood Cell Lysis Buffer, Alfa Aesar) for 5-10 minutes at room temperature. After a final wash in PBS, PBMC were resuspended at a final concentration of 2×10^6 cells/mL in RPMI-1640 media with GlutaMAX™ (Gibco) supplemented with 10% Fetal Bovine Serum (Sigma) and plated at 150 μL/well (3×10^5 cells/well) in tissue culture treated round bottom 96-well plates (Corning Incorporated). Antagonist compounds (compounds of this invention) solubilized and serial diluted in 100% DMSO were added in duplicate to cells to yield a final concentration of 1% DMSO (v/v). PBMC were incubated with antagonist compounds for 30 minutes at 37° C., 5% CO2 before adding various TLR agonist reagents in 48 μL complete media per well as follows (final concentrations indicated): CpG ODN 2216 (InvivoGen) at 1 μM for TLR9, ORN 06/LyoVec (InvivoGen) at […] for TLR8 and R848 (InvivoGen) at 1 μg/mL for TLR7 and TLR8. PBMC were incubated overnight at 37° C. with 5% C02. Cell culture supernatants were collected, and levels of various human cytokines were assessed by Luminex assay (ProcartaPlex™ Multiplex Immunoassay, Invitrogen) or ELISA procedure according to the manufacturer's recommended protocol (eBioscience, ThermoFisher Scientific). Viability of the cells was also checked with Cell Viability Assay (CellTiter Glo® Luminescent Cell Viability Assay, Promega).

T1 sequence (Q12809 whole entry): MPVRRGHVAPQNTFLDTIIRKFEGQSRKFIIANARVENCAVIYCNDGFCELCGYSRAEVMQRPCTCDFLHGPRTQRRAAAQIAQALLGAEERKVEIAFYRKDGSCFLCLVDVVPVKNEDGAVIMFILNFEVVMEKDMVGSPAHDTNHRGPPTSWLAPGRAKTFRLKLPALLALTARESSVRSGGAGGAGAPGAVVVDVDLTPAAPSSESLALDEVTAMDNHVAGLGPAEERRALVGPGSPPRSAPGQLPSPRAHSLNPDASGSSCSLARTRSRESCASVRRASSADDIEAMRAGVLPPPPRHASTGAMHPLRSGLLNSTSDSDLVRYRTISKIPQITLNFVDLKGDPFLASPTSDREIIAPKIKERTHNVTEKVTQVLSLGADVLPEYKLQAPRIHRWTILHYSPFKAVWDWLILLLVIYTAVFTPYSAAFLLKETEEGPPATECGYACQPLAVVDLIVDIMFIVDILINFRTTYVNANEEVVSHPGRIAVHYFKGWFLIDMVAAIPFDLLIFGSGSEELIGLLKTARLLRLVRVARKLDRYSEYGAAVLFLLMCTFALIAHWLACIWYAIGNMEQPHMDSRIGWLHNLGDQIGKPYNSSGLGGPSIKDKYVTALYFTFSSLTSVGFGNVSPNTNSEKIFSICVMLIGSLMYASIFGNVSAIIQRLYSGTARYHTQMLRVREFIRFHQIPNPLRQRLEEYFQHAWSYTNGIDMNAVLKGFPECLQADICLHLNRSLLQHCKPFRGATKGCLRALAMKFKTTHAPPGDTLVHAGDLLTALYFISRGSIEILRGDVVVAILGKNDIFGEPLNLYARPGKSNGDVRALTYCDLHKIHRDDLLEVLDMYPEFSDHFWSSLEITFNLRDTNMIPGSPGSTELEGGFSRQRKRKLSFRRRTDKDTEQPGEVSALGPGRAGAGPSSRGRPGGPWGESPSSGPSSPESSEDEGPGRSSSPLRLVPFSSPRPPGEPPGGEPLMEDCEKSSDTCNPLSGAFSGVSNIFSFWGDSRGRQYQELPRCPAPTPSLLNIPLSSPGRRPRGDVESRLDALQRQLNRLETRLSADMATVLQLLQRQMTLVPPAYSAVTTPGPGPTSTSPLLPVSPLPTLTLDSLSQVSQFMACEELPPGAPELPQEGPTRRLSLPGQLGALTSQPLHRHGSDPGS

Turning to `Cc1cc(N2CCC(c3ncc(N4CCNCC4)cc3C)CC2)c2cnn(C)c2n1` [Example 7, 1,6-dimethyl-4-[4-(3-methyl-5-piperazin-1-yl-2-pyridyl)-1-piperidyl]pyrazolo[3,4-b]pyridine], on hERG K+ channel, the IC50 was > 20 µM, it took 5.1 µM to reach the 20% level (IC20), the “hERG IC20/TLR7 IC50” value was 463.6 and the “hERG IC20/TLR8 IC50” value was 175.9. Moreover, on hERG K+ channel, the “hERG IC20/TLR9 IC50” value came to 98.1. For the same compound, at TLR9, the IC50 was 420 nM.

On to `CO[C@@H]1CN(c2cnc([C@@H]3CCN(c4cc(C)nc5c4cnn5C)C[C@H]3C)c(C)c2)C[C@H]1N` [Example 26, (3R,4R)-1-[6-[(3S,4R)-1-(1,6-dimethylpyrazolo[3,4-b]pyridin-4-yl)-3-methyl-4-piperidyl]-5-methyl-3-pyridyl]-4-methoxy-pyrrolidin-3-amine], for which, at hERG K+ channel, the IC50 was > 20 µM, the concentration for an effect of 20% (IC20) is > 10 µM, the “hERG IC20/TLR7 IC50” value is >833.3 and the “hERG IC20/TLR8 IC50” value is on record as >714.3. Besides, the “hERG IC20/TLR9 IC50” value at hERG K+ channel is recorded as >91.7. Moreover, the IC50 at TLR9 worked out at 330 nM.

In the case of `Cc1cc(N2CC[C@@H](c3ncc(N4CCOC[C@@H](N)C4)cc3C)[C@H](C)C2)c2cnn(C)c2n1` [Example 28, (6S)-4-[6-[(3S,4R)-1-(1,6-dimethylpyrazolo[3,4-b]pyridin-4-yl)-3-methyl-4-piperidyl]-5-methyl-3-pyridyl]-1,4-oxazepan-6-amine], on hERG K+ channel, the IC50 is > 20 µM, the 20% effect level (IC20) was put at 6.4 µM, the “hERG IC20/TLR7 IC50” value was found to be 914.3 and the “hERG IC20/TLR8 IC50” value was found to be 3200.0. Besides, the “hERG IC20/TLR9 IC50” value on hERG K+ channel came to 50.8. For the same compound, the IC50 at TLR9 was determined as 520 nM.

Regarding `COC[C@H]1CN(c2cnc([C@@H]3CCN(c4cc(C)nc5c4cnn5C)C[C@H]3C)c(C)c2)CCN1` [Example 29, 4-[(3S,4R)-4-[5-[(3R)-3-(methoxymethyl)piperazin-1-yl]-3-methyl-2-pyridyl]-3-methyl-1-piperidyl]-1,6-dimethyl-pyrazolo[3,4-b]pyridine], at hERG K+ channel, the IC50 is > 10 µM, the concentration for an effect of 20% (IC20) came to 4.4 µM, the “hERG IC20/TLR7 IC50” value amounted to 880.0 and the “hERG IC20/TLR8 IC50” value was 550.0. Also, the “hERG IC20/TLR9 IC50” value on hERG K+ channel was 18.5. Also, the IC50 on TLR9 is 710 nM.

Regarding `Cc1cc(N2CC[C@@H](c3ncc(N4CC(C)(N)C4)cc3C)[C@H](C)C2)c2cnn(C)c2n1` [Example 32, 1-[6-[(3S,4R)-1-(1,6-dimethylpyrazolo[3,4-b]pyridin-4-yl)-3-methyl-4-piperidyl]-5-methyl-3-pyridyl]-3-methyl-azetidin-3-amine], on hERG K+ channel, the IC50 was > 10 µM, the 20% effect level (IC20) was put at 4.4 µM, the “hERG IC20/TLR7 IC50” value is on record as 550.0 and the “hERG IC20/TLR8 IC50” value was found to be 293.3. Moreover, the “hERG IC20/TLR9 IC50” value on hERG K+ channel was determined as 23.7. The IC50 at TLR9 came to 320 nM.

For the compound `Cc1cc(N2CC[C@@H](c3ncc(N4C[C@H]5NCCO[C@@H]5C4)cc3C)[C@H](C)C2)c2cnn(C)c2n1` [Example 33, (4aR,7aR)-6-[6-[(3S,4R)-1-(1,6-dimethylpyrazolo[3,4-b]pyridin-4-yl)-3-methyl-4-piperidyl]-5-methyl-3-pyridyl]-3,4,4a,5,7,7a-hexahydro-2H-pyrrolo[3,4-b][1,4]oxazine], at hERG K+ channel, the IC50 was > 10 µM, the concentration for an effect of 20% (IC20) turned out to be 4.1 µM, the “hERG IC20/TLR7 IC50” value is reported as 372.7 and the “hERG IC20/TLR8 IC50” value came out at 1366.7. For the same compound, the “hERG IC20/TLR9 IC50” value on hERG K+ channel worked out at 51.9. Further, the IC50 at TLR9 is 146 nM.

Turning to `Cc1cc(N2CC[C@H](c3ccc(N4CCNCC4)cn3)[C@@H](C)C2)c2cnn(C)c2n1` [Example 35, 1,6-dimethyl-4-[(3R,4S)-3-methyl-4-(5-piperazin-1-yl-2-pyridyl)-1-piperidyl]pyrazolo[3,4-b]pyridine], at hERG K+ channel, the IC50 was > 10 µM, the IC20 amounted to 4.4 µM, the “hERG IC20/TLR7 IC50” value stood at 733.3 and the “hERG IC20/TLR8 IC50” value was 488.9. Besides, at hERG K+ channel, the “hERG IC20/TLR9 IC50” value is given as 27.8. The IC50 on TLR9 turned out to be 870 nM.

Consider `Cc1cc(N2CC[C@H](c3ccc(N4CCOC[C@@H](N)C4)cn3)[C@@H](C)C2)c2cnn(C)c2n1` [Example 40, (6S)-4-[6-[(3R,4S)-1-(1,6-dimethylpyrazolo[3,4-b]pyridin-4-yl)-3-methyl-4-piperidyl]-3-pyridyl]-1,4-oxazepan-6-amine], for which, on hERG K+ channel, the IC50 was > 20 µM, the IC20 turned out to be 5.9 µM, the “hERG IC20/TLR7 IC50” value amounted to 655.6 and the “hERG IC20/TLR8 IC50” value turned out to be 842.9. On hERG K+ channel, the “hERG IC20/TLR9 IC50” value is listed as 34.1. For the same compound, the IC50 at TLR9 worked out at 540 nM.

As to `Cc1cc(N2CC[C@H](c3ccc(N4CC(C)(N)C4)cn3)[C@@H](C)C2)c2cnn(C)c2n1` [Example 43, 1-[6-[(3R,4S)-1-(1,6-dimethylpyrazolo[3,4-b]pyridin-4-yl)-3-methyl-4-piperidyl]-3-pyridyl]-3-methyl-azetidin-3-amine], on hERG K+ channel, the IC50 was > 20 µM, the 20% effect concentration (IC20) is > 10 µM, the “hERG IC20/TLR7 IC50” value is listed as >625.0 and the “hERG IC20/TLR8 IC50” value was >1666.7. The “hERG IC20/TLR9 IC50” value on hERG K+ channel is >49.3. Besides, on TLR9, the IC50 is 470 nM.
